The results in this text go back to paper PMC4433340 (PLoS Neglected Tropical Diseases, 2015).

Test [1] has as its system HUVEC. Kind of test: Cell viability by MTT reduction assay, HUVEC. As to conditions: Homo sapiens, 24 hours incubation, mean ± SD, n = 3, read-out: IC50, cellular viability, HUVEC. It is filed as cell-based. Here is the method: HUVECs (C-015-10C, Cascade Biologics, Life Technologies, USA) are primary human umbilical vein endothelial cells that are pooled from multiple donors. Cells were cultured in medium 200 (Cascade Biologics, USA) that had been supplemented with low serum growth supplement (LSGS, Cascade Biologics).
The effect of the drug on all cells and parasite viability was evaluated through the tetrazolium salt (MTT, Sigma-Aldrich) reduction assay as described. […] Cultures were incubated for 24 hours before adding MTT for 4 hours. The plates were incubated overnight with 10% SDS w/v in 0.01 M HCl at 37°C, and optical density (OD) was determined using a microplate reader (Labsystems Multiskan MS, Finland) at 570 nm. Under these conditions, the OD was directly proportional to viable cell number per well. All of the experiments were performed at least three times, and the data are shown as the means and their standard deviations from triplicate cultures.
On the technique in general: Formazan colour is commonly taken as a measure of viable cells.

Test [2] concerns HL-60 leukocyte adhesion to T. cruzi-infected endothelial cells. Kind of test: Leukocyte-endothelium cell adhesion assay. It is filed as cell-based, human. The conditions noted are these: 5 μM simvastatin or 20 μM benznidazole for 24 hours before 16 hours infection; HL-60 leukocytes. The procedure: The leukocyte adhesion assay was performed with the Cytoselect Leukocyte-Endothelium Adhesion Assay kit (CBA-210; Cell Biolabs, USA). Briefly, EA.hy926 cells were cultured in 96-well plates that had been previously coated with gelatin for 1 hour. […] LeukoTracker-labeled leukocytes (HL60 cells) were added to the monolayer and incubated for 90 min. After thorough washing, cells were lysed, and fluorescence was measured at 480 nm excitation/520 nm emission. The percentage of adherent leukocytes was calculated: % adherence = adherent signal/total signal. All of the determinations were performed in triplicate using a fluorescence microplate reader (Varioskan, Thermo Scientific).

Test [3] concerns NF-κB p65 in T. cruzi-infected EA.hy926 cells. Kind of test: Nuclear p65 localization by confocal microscopy. As to conditions: 5 μM simvastatin or 20 μM benznidazole before T. cruzi 1 hour. The class given is cell-based, human. Here is the method: 2x10^4 EA.hy926 cells were seeded in Lab-Tek II Chamber Slides^TM for 12 hours. Cells were fixed in 3.7% formaldehyde–0.1 M phosphate buffer (pH 7.3) for 10 min. They were then washed with cytoskeletal buffer followed by permeabilization for 5 min with Triton-X100 0.5%. Cells were blocked with 3% bovine serum albumin for 1 hour. […] The samples were washed with PBS and incubated with anti-rabbit IgG conjugated with fluorescein (1:100) from Sigma-Aldrich for 1 hour. Finally, nuclei were stained with DAPI for 5 minutes and mounted in Dako fluorescence mounting media. The cells were photographed and ten pictures per well were obtained; images were analyzed using ImageJ software (ImageJ 1.47v).

In test [4] the test system is Trypomastigotes Dm28c. Put plainly: Parasite viability by MTT reduction assay, trypomastigotes. It is filed as cell-based. As to conditions: Trypanosoma cruzi, read-out: IC50, cellular viability, Trypomastigotes Dm28c. The procedure:
T. cruzi trypomastigotes (Dm28c clone) from our collection, were obtained from infected EA.hy926 cells. Cells were exposed to trypomastigotes (Dm28c clone) at a multiplicity of infection (MOI) of 5. Trypomastigotes were allowed to infect cells for 24 hours, after which the supernatant was removed and fresh medium was added. Trypomastigotes were released from EA.hy926 cells after four days of infection. The parasites were harvested and collected for viability assays and further cell infections.
The effect of the drug on all cells and parasite viability was evaluated through the tetrazolium salt (MTT, Sigma-Aldrich) reduction assay as described. Drugs at concentrations ranging from 1 to 20 μM, dissolved in DMSO at a 0.025% v/v final concentration, were applied to 2.5x10^5 cells/mL or 10^6 parasite/mL culture medium. Cultures were incubated for 24 hours before adding MTT for 4 hours. The plates were incubated overnight with 10% SDS w/v in 0.01 M HCl at 37°C, and optical density (OD) was determined using a microplate reader (Labsystems Multiskan MS, Finland) at 570 nm. Under these conditions, the OD was directly proportional to viable cell number per well. All of the experiments were performed at least three times, and the data are shown as the means and their standard deviations from triplicate cultures.

Test [5] has as its system E-selectin, ICAM-1 and VCAM-1 expression on T. cruzi-infected EA.hy926 and HUVEC cells. Kind of test: Endothelial cell adhesion molecule surface expression by flow cytometry / immunofluorescence. The class given is cell-based, human. The conditions noted are these: 5 μM simvastatin or 20 μM benznidazole for 24 hours before 16 hours T. cruzi infection (MOI 10); EA.hy926 and HUVEC. Here is the method: Then, cells were infected with trypomastigotes at a MOI of 10 and incubated for 16 hours. Cells were detached with 1X EDTA-PBS at 0.5 mM. The harvested cells were washed with cold PBS and centrifuged at 800 x g for 5 minutes. Then, cells were washed with flow cytometry buffer three times. 100 μL of cell suspensions were incubated for 45 min at 4°C in the dark with mouse monoclonal anti- human E-selectin (5 μL undiluted), ICAM-1(3 μL undiluted), and VCAM-1 (1 μL undiluted) that were conjugated with PE, FITC and APC, respectively (BioLegend, USA). Cell suspensions were analyzed by flow cytometry using a FACSAria-III flow cytometer (BD Biosciences, USA). A homogeneous cell population was selected by size vs. granularity in log scale for these two conditions.
2x10^4 EA.hy926 cells/slide were seeded in Lab-Tek II Chamber Slide^TM (ThermoScientific, USA) and allowed to adhere overnight. […] After 16 hours of infection, cells were fixed in 4% formaldehyde–0.1 M phosphate buffer (pH 7.3) for 10 min. Cells were blocked with 3% bovine serum albumin for 1 hour. Then, cells were incubated with monoclonal antibodies against E-selectin (1:100), VCAM-1 (1:250) and ICAM-1 (1:100) (from Abcam, UK) overnight at 4°C. The samples were washed with PBS and incubated with anti-rabbit IgG that had been conjugated with fluorescein (1:100) from Sigma-Aldrich for 1 h. Finally, nuclei were stained with DAPI for 5 minutes and mounted with Dako Fluorescence Mounting (Dako, USA). The cells were photographed using a Nikon Eclipse 400 fluorescence microscope (Nikon, Japan), and images were analyzed by mean intensity using ImageJ software (ImageJ 1.47v).
Background: A flow cytometer gives signals particle by particle.

Like-named read-outs stand apart in the source and are kept apart here. Where only a bound is given, the exact number is not on record here.

For the molecule `O=C(Cn1ccnc1[N+](=O)[O-])NCc1ccccc1` [Benznidazole], the IC50 (commonly the concentration at which inhibition is half-maximal) in test [1] is below 100 µM; in test [4] (24 h), 20.8 ± 1.35 µM. Also, in test [2], the “Leukocyte adhesiveness to infected endothelial cells” value is given as “adhesiveness decreased”. In addition, in test [3], the “Nuclear p65 localization” value is recorded as “decreased nuclear p65 localization”. Besides, the “E-selectin, ICAM-1 and VCAM-1 surface expression” value in test [5] is recorded as “prevent cell adhesion molecule expression”.

As for `CCC(C)(C)C(=O)O[C@H]1C[C@@H](C)C=C2C=C[C@H](C)[C@H](CC[C@@H]3C[C@@H](O)CC(=O)O3)[C@H]21` [Simvastatin], the IC50 was 84.4 ± 1.56 µM in test [1] and 4.2 ± 1.06 µM in test [4] (MTT assay, 24 hours incubation, mean ± SD, n = 3). Moreover, the “Leukocyte adhesiveness to infected endothelial cells” value in test [2] is given as “adhesiveness decreased”.
